Results as given in paper PMC3433420 (PLoS ONE, 2012).
Residues, ends and D or L forms follow the SMILES beside them.

How the values were obtained:
PIK3R3-C SH2 domain = target: T1, PIK3R3-C SH2 domain (Homo sapiens, UniProt Q92569); test: biochemical; format: binding; conditions: high-confidence ErbB interactions
T1 construct: thioredoxin; made in house; host or cells: E. coli BL21(DE3)pLysS

[1] = target: T2, PIK3R1-NC tandem SH2 domains (Homo sapiens, UniProt P27986); test: FP saturation binding assay; conditions: high-confidence ErbB interactions
T2 construct: the tandem protein was included in our analysis with all internal amino acids linking the domains; 6X His; thioredoxin; made in house; host or cells: E. coli BL21(DE3)pLysS
T2 sequence (P27986 333-718 limits assumed): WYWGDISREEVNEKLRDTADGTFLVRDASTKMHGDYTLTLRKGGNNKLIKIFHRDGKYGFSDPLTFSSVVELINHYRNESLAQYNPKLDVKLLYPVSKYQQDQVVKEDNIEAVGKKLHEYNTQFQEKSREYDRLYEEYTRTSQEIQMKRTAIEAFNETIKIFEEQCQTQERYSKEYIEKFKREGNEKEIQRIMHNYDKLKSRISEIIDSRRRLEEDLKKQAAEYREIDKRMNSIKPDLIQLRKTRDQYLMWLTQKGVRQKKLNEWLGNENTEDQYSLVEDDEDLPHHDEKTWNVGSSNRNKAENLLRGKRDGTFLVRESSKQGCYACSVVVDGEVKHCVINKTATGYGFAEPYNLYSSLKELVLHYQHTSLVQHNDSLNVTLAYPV
Procedure, shortened: (§1)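 Rhodamine-labeled peptides (10 nM final) were titrated with 12 SH2 domain concentrations (0.002–10 µM) in 20 mM HEPES, 100 mM KCl, 0.1% Tween-20, 5 mM DTT, pH 7.8. After 20 min at room temperature in the dark, FP (ex 530/em 555 nm) was read. KDs came from nonlinear least-squares fits.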

PTPN11-N SH2 domain = target: T3, PTPN11-N SH2 domain (Homo sapiens, UniProt Q06124); test: FP saturation binding assay
T3 sequence (Q06124 6-102 limits assumed): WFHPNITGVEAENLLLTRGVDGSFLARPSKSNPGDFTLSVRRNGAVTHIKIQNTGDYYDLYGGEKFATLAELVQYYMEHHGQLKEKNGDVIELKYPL

SHC1-PTB domain = target: T4, SHC1-PTB domain (Homo sapiens, UniProt P29353); test: FP saturation binding assay
T4 sequence (P29353 156-339 limits assumed): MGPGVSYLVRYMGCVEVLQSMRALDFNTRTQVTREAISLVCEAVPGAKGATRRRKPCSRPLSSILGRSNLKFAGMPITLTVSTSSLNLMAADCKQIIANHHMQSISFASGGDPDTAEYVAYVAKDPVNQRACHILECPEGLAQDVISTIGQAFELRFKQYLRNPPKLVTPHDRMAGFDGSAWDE

SH2D1B SH2 domain = target: T5, SH2D1B SH2 domain (Homo sapiens, UniProt O14796); test: FP saturation binding assay
T5 sequence (O14796 5-101 limits assumed): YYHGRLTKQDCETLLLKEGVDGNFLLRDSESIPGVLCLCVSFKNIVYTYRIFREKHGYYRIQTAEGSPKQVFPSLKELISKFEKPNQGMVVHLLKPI

VAV3 SH2 domain = target: T6, VAV3 SH2 domain (Homo sapiens, UniProt Q9UKW4); test: FP saturation binding assay; conditions: protein VAV3, high-confidence ErbB interactions, mean of replicate hits
T6 construct: 6X His; thioredoxin; made in house; host or cells: BL21(DE3)pLysS E. coli
T6 sequence (Q9UKW4 672-766 limits assumed): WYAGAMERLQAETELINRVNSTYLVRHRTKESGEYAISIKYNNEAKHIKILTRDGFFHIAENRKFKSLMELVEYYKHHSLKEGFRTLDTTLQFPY
Procedure, shortened: as §1

GRB7 SH2 domain = GRB7 SH2 domain (Homo sapiens, UniProt Q14451); test: FP saturation binding assay
Chain of GRB7 SH2 domain (Q14451 431-527 limits assumed): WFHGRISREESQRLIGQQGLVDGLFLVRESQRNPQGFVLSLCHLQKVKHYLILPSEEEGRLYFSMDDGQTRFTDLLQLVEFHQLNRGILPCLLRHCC

HSH2D SH2 domain = target: T7, HSH2D SH2 domain (Homo sapiens, UniProt Q96JZ2); test: FP saturation binding assay
T7 sequence (Q96JZ2 34-125 limits assumed): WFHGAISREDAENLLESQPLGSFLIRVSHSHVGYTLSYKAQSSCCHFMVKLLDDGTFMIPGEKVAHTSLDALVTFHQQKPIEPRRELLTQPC

CC(C)C[C@H](NC(=O)[C@H](Cc1ccc(OP(=O)(O)O)cc1)NC(=O)[C@H](CCC(=O)O)NC(=O)[C@H](CCC(=O)O)NC(=O)[C@H](C)NC(=O)[C@@H](N)CC(=O)O)C(=O)N[C@H](C(=O)N1CCC[C@H]1C(=O)N[C@@H](CCC(N)=O)C(=O)N[C@@H](CCC(N)=O)C(=O)NCC(=O)N[C@@H](Cc1ccccc1)C(=O)N[C@@H](CC(=O)O)C(=O)O)C(C)C [ErbB2 1023 13-mer] (HELM PEPTIDE1{D.A.E.E.[O=C([C@H](Cc1ccc(OP(=O)(O)O)cc1)N[*:1])[*:2]].L.V.P.Q.Q.G.F.D}$$$$V2.0) was tested. Which Kd (PIK3R3-C SH2 domain; Protein PIK3R3-C, FP saturation binding, mean over replicate hits) did it give?
The Kd was 5.8 µM.

What about the Kd ([1]; Protein PIK3R1-NC, FP saturation binding, mean over replicate hits) of the same compound?
The Kd was 7.14 µM.

For CC(C)[C@H](NC(=O)[C@H](CC(=O)O)NC(=O)[C@@H]1CCCN1C(=O)[C@H](CCC(N)=O)NC(=O)[C@H](CC(N)=O)NC(=O)[C@@H](NC(=O)[C@H](Cc1ccc(OP(=O)(O)O)cc1)NC(=O)[C@H](CCC(=O)O)NC(=O)[C@@H]1CCCN1C(=O)[C@H](CCC(N)=O)NC(=O)[C@@H]1CCCN1)C(C)C)C(=O)N[C@@H](CCCNC(=N)N)C(=O)N[C@@H](CC(=O)O)C(=O)O [ErbB2 1139 13-mer] (HELM PEPTIDE1{P.Q.P.E.[O=C([C@H](Cc1ccc(OP(=O)(O)O)cc1)N[*:1])[*:2]].V.N.Q.P.D.V.R.D}$$$$V2.0), which Kd (PTPN11-N SH2 domain) is on record?
The Kd was 8.86 µM.

Which Kd (SHC1-PTB domain) does the source give for CC(C)C[C@H](NC(=O)[C@H](CC(N)=O)NC(=O)[C@@H](N)CC(=O)O)C(=O)N[C@@H](Cc1ccc(O)cc1)C(=O)N[C@@H](Cc1ccc(OP(=O)(O)O)cc1)C(=O)N[C@@H](Cc1c[nH]c2ccccc12)C(=O)N[C@@H](CC(=O)O)C(=O)N[C@@H](CCC(N)=O)C(=O)N[C@@H](CC(=O)O)C(=O)N1CCC[C@H]1C(=O)N1CCC[C@H]1C(=O)N[C@@H](CCC(=O)O)C(=O)N[C@@H](CC(=O)O)C(=O)O [ErbB2 1222 13-mer] (HELM PEPTIDE1{D.N.L.Y.[O=C([C@H](Cc1ccc(OP(=O)(O)O)cc1)N[*:1])[*:2]].W.D.Q.D.P.P.E.D}$$$$V2.0) here?
Its Kd is 2.96 µM.

What does the source list for CSCC[C@H](NC(=O)[C@H](Cc1ccc(OP(=O)(O)O)cc1)NC(=O)[C@H](CCC(=O)O)NC(=O)[C@H](Cc1ccc(O)cc1)NC(=O)CNC(=O)[C@@H](N)CC(C)C)C(=O)N[C@@H](CC(=O)O)C(=O)N[C@H](C(=O)NCC(=O)N[C@@H](CO)C(=O)N[C@@H](CC(=O)O)C(=O)N[C@@H](CC(C)C)C(=O)N[C@@H](CC(=O)O)C(=O)O)C(C)C [ErbB3 1224 13-mer] (HELM PEPTIDE1{L.G.Y.E.[O=C([C@H](Cc1ccc(OP(=O)(O)O)cc1)N[*:1])[*:2]].M.D.V.G.S.D.L.D}$$$$V2.0)?
Kd (PIK3R3-C SH2 domain; protein PIK3R3-C, FP, mean of replicate hits): 6.11 µM; Kd (PTPN11-N SH2 domain): 4.8 µM; Kd (SH2D1B SH2 domain): 1.47 µM; Kd (SHC1-PTB domain): 5.27 µM

For CSCC[C@H](NC(=O)[C@H](CCC(=O)O)NC(=O)[C@H](CCC(=O)O)NC(=O)[C@H](Cc1ccc(OP(=O)(O)O)cc1)NC(=O)CNC(=O)[C@H](CCC(N)=O)NC(=O)[C@H](CCC(=O)O)NC(=O)[C@@H](N)CO)C(=O)N[C@@H](CCCNC(=N)N)C(=O)N[C@@H](C)C(=O)N[C@@H](Cc1ccccc1)C(=O)N[C@@H](CCC(N)=O)C(=O)N[C@@H](CC(=O)O)C(=O)O [ErbB3 1289 13-mer] (HELM PEPTIDE1{S.E.Q.G.[O=C([C@H](Cc1ccc(OP(=O)(O)O)cc1)N[*:1])[*:2]].E.E.M.R.A.F.Q.D}$$$$V2.0), which Kd (VAV3 SH2 domain) is on record?
Its Kd is 8.4 µM.

What does the source list for CSCC[C@H](NC(=O)[C@H](Cc1ccc(OP(=O)(O)O)cc1)NC(=O)CNC(=O)[C@H](CCC(=O)O)NC(=O)[C@H](CCC(=O)O)NC(=O)[C@H](CC(=O)O)NC(=O)[C@H](CC(C)C)NC(=O)[C@H](CCC(=O)O)NC(=O)CNC(=O)[C@H](CCCNC(=N)N)NC(=O)[C@@H]1CCCN1)C(=O)N[C@H](C(=O)N1CCC[C@H]1C(=O)N[C@@H](CCSC)C(=O)N[C@@H](CCCNC(=N)N)C(=O)N[C@@H](CC(=O)O)C(=O)N[C@@H](CCCCN)C(=O)N[C@@H](CC(=O)O)C(=O)O)[C@@H](C)O [ErbB4 1150 18-mer] (HELM PEPTIDE1{P.R.G.E.L.D.E.E.G.[O=C([C@H](Cc1ccc(OP(=O)(O)O)cc1)N[*:1])[*:2]].M.T.P.M.R.D.K.D}$$$$V2.0)?
Kd ([1]; protein PIK3R1-NC, FP, mean of replicate hits): 5.81 µM; Kd (VAV3 SH2 domain): 0.18 µM

CC(C)C[C@H](NC(=O)[C@H](Cc1ccc(OP(=O)(O)O)cc1)NC(=O)[C@H](CC(C)C)NC(=O)[C@@H]1CCCN1C(=O)[C@H](CCC(=O)O)NC(=O)[C@H](CC(N)=O)NC(=O)[C@@H](NC(=O)[C@H](Cc1ccc(O)cc1)NC(=O)[C@H](CCC(=O)O)NC(=O)[C@H](CC(=O)O)NC(=O)[C@@H](N)CCC(=O)O)C(C)C)C(=O)N[C@@H](CC(N)=O)C(=O)N[C@H](C(=O)N[C@@H](Cc1ccccc1)C(=O)N[C@@H](C)C(=O)N[C@@H](CC(N)=O)C(=O)N[C@H](C(=O)N[C@@H](CC(=O)O)C(=O)O)[C@@H](C)O)[C@@H](C)O [ErbB4 1208 18-mer] (HELM PEPTIDE1{E.D.E.Y.V.N.E.P.L.[O=C([C@H](Cc1ccc(OP(=O)(O)O)cc1)N[*:1])[*:2]].L.N.T.F.A.N.T.D}$$$$V2.0) was tested. Which Kd (GRB7 SH2 domain; Mean KD, protein GRB7, high-confidence ErbB interactions, mean of replicate hits) did it give?
Its Kd is 9.99 µM.

What about the Kd (HSH2D SH2 domain) of the same compound?
Its Kd is 1.14 µM.

How did the “interaction with GRB7 on the FP platform” value (GRB7 SH2 domain; peptides queried on both FP and PM platforms) turn out when DNLYpYWDQDPPEd [ErbB2 pY1222] was run?
Its value is “only displayed interactions with GRB7 from the PM platform”.
